Source: patent US11614423B2, “Transformed response potentiometric titrations” (UNIVERSITEIT ANTWERPEN, priority 2014, dated 2023)

What was measured:
[1] = Transformed response potentiometric titration of cocaine (ligand) with titrants; assay type: binding; settings: for Ka: 1 mM MES buffer pH 7.0, mean of n electrodes
[2] = tested on: Cocaine Binding Aptamer (CBA); assay: Transformed response potentiometric titration of different ligands with CBA as titrant (cross-reactivity); settings: for Ka: Post-EP method, 10^−5 M ligand in 1 mM MES buffer pH 7, CBA as titrant

Row | Molecule | Ka ([1]; Post-EP (PEP) method) | Ka [2] | other results
1 | CBA: Cocaine Binding Aptamer, sequence SEQ ID NO: 1, 43 bases (DNA ATCTCGGGACGACAGGATTTTCCTCAATGAAGTGGGTCGTCCC; DNA, backbone not given here) |  |  | Kd ([1]; Post-EP method, n=6 electrodes): 1100 nM
2 | 25-mer-DNA: randomly chosen non-specific oligonucleotide, likely SEQ ID NO: 2 (DNA AAAATATCATCTTTGGTGTTTCCTA; DNA, backbone and methylation of C not given here) | 24000 M⁻¹ |  | specific interaction with cocaine (in words) ([1]; comparison of titration curves and Ka values): little or no specific interaction
3 | Clc1ccc([B-](c2ccc(Cl)cc2)(c2ccc(Cl)cc2)c2ccc(Cl)cc2)cc1 [TCPB, tetrakis (4-chlorophenyl)borate] | 9e+09 M⁻¹ |  | Ka ([1]; Equivalence Point (EP) method): 3e+09 M⁻¹
4 | CCN(CC)CC(=O)Nc1c(C)cccc1C [lidocaine] |  | 100000 M⁻¹ | 
5 | CN(Cc1cc(Br)cc(Br)c1N)C1CCCCC1 [bromhexine] |  | 570000 M⁻¹ | 
6 | CN1C[C@H](CNC(=O)OCc2ccccc2)C[C@@H]2c3cccc4c3c(cn4C)C[C@H]21 [metergoline] |  | 3.3e+06 M⁻¹ | interaction with CBA (in words) ([2]; cross-reactivity compared with cocaine): better interaction with metergoline than with cocaine
7 | CAPBA: Chloramphenicol Binding Aptamer, sequence SEQ ID NO: 3 (nucleic acid, DNA, backbone and methylation of C not given here) DNA: AGCAGCACAGAGGTCAGATGACTTCAGTGAGTTGTCCCACGGTCGGCGAGTCGGTGGTAGCCTATGCGTGCTACCGTGAA | 47000 M⁻¹ |  | 
